≈ marks a conversion by molar mass, not a printed value.
Test system: Leishmania donovani
Assay: Antileishmanial activity against Leishmania donovani NHOM/IN/80/DD8 promastigotes after 72 hrs by MTT assay
Assay type: functional
Conditions: NHOM/IN/80/DD8, 72 h

Row | SMILES | IC50 [µM]
1 | COc1ccc(-c2cc(-c3c[nH]c4ccccc34)nc(-c3c[nH]c4ccccc34)c2)cc1 | 99.5
2 | COc1ccc(OC)c(-c2cc(-c3c[nH]c4ccccc34)nc(-c3c[nH]c4ccccc34)c2)c1 | 260
3 | Clc1ccc(-c2cc(-c3c[nH]c4ccccc34)nc(-c3c[nH]c4ccccc34)c2)cc1 | 166
4 | Oc1ccc(-c2cc(-c3c[nH]c4ccccc34)nc(-c3c[nH]c4ccccc34)c2)cc1O | 287
5 | COc1cc(-c2cc(-c3c[nH]c4ccccc34)nc(-c3c[nH]c4ccccc34)c2)ccc1O | 169
6 | COc1cc(-c2cc(-c3c[nH]c4ccccc34)nc(-c3c[nH]c4ccccc34)c2)cc(OC)c1OC | 136
7 | CN(C)c1ccc(-c2cc(-c3c[nH]c4ccccc34)nc(-c3c[nH]c4ccccc34)c2)cc1 | 112
8 | Clc1ccccc1-c1cc(-c2c[nH]c3ccccc23)nc(-c2c[nH]c3ccccc23)c1 | 123
9 | O=C(O)c1ccccc1-c1cc(-c2c[nH]c3ccccc23)nc(-c2c[nH]c3ccccc23)c1 | 118
10 | Clc1cccc(Cl)c1-c1cc(-c2c[nH]c3ccccc23)nc(-c2c[nH]c3ccccc23)c1 | 102
11 | c1ccc(-c2cc(-c3c[nH]c4ccccc34)nc(-c3c[nH]c4ccccc34)c2)cc1 | 142
12 | COc1ccc(-c2cc(-c3c[nH]c4ccccc34)nc(-c3c[nH]c4ccccc34)c2)cc1OC | 192
13 | COc1ccc(-c2cc(-c3c[nH]c4ccccc34)nc(-c3c[nH]c4ccccc34)c2)c(OC)c1 | 600

Test system: Pseudomonas aeruginosa
Assay: Antibacterial activity against Pseudomonas aeruginosa NCIM 2036 by standard agar method
Assay type: functional
Conditions: not given

Row | SMILES | MIC [µg/mL]
14 | COc1ccc(OC)c(-c2cc(-c3c[nH]c4ccccc34)nc(-c3c[nH]c4ccccc34)c2)c1 | 182 (≈ 408 µM)
15 | Oc1ccc(-c2cc(-c3c[nH]c4ccccc34)nc(-c3c[nH]c4ccccc34)c2)cc1O | 224 (≈ 535 µM)
16 | COc1cc(-c2cc(-c3c[nH]c4ccccc34)nc(-c3c[nH]c4ccccc34)c2)ccc1O | 165 (≈ 383 µM)
17 | COc1cc(-c2cc(-c3c[nH]c4ccccc34)nc(-c3c[nH]c4ccccc34)c2)cc(OC)c1OC | 197 (≈ 414 µM)
18 | CC1(C)S[C@@H]2[C@H](NC(=O)[C@H](N)c3ccccc3)C(=O)N2[C@H]1C(=O)O [AMPICILLIN] | 100 (≈ 286 µM)
19 | Clc1cccc(Cl)c1-c1cc(-c2c[nH]c3ccccc23)nc(-c2c[nH]c3ccccc23)c1 | 175 (≈ 386 µM)
20 | O=C(O)c1cn(C2CC2)c2cc(N3CCNCC3)c(F)cc2c1=O [CIPROFLOXACIN] | 50 (≈ 151 µM)
21 | COc1ccc(-c2cc(-c3c[nH]c4ccccc34)nc(-c3c[nH]c4ccccc34)c2)cc1OC | 180 (≈ 404 µM)
22 | COc1ccc(-c2cc(-c3c[nH]c4ccccc34)nc(-c3c[nH]c4ccccc34)c2)c(OC)c1 | 188 (≈ 423 µM)

The remaining lines, values ahead:

Row | MIC [µg/mL] | SMILES
23 | 150 (≈ 358 µM) | Clc1ccccc1-c1cc(-c2c[nH]c3ccccc23)nc(-c2c[nH]c3ccccc23)c1
24 | 149 (≈ 349 µM) | CN(C)c1ccc(-c2cc(-c3c[nH]c4ccccc34)nc(-c3c[nH]c4ccccc34)c2)cc1
25 | 149 (≈ 387 µM) | c1ccc(-c2cc(-c3c[nH]c4ccccc34)nc(-c3c[nH]c4ccccc34)c2)cc1
26 | 122 (≈ 284 µM) | O=C(O)c1ccccc1-c1cc(-c2c[nH]c3ccccc23)nc(-c2c[nH]c3ccccc23)c1
27 | 120 (≈ 288 µM) | COc1ccc(-c2cc(-c3c[nH]c4ccccc34)nc(-c3c[nH]c4ccccc34)c2)cc1
28 | 115 (≈ 275 µM) | Clc1ccc(-c2cc(-c3c[nH]c4ccccc34)nc(-c3c[nH]c4ccccc34)c2)cc1

Test system: Escherichia coli
Assay: Antibacterial activity against Escherichia coli NCIM 2256 by standard agar method
Assay type: functional
Conditions: not given

Row | SMILES | MIC [µg/mL]
29 | COc1ccc(OC)c(-c2cc(-c3c[nH]c4ccccc34)nc(-c3c[nH]c4ccccc34)c2)c1 | 133 (≈ 299 µM)
30 | Oc1ccc(-c2cc(-c3c[nH]c4ccccc34)nc(-c3c[nH]c4ccccc34)c2)cc1O | 158 (≈ 379 µM)
31 | COc1cc(-c2cc(-c3c[nH]c4ccccc34)nc(-c3c[nH]c4ccccc34)c2)ccc1O | 129 (≈ 300 µM)
32 | COc1cc(-c2cc(-c3c[nH]c4ccccc34)nc(-c3c[nH]c4ccccc34)c2)cc(OC)c1OC | 192 (≈ 403 µM)
33 | CC1(C)S[C@@H]2[C@H](NC(=O)[C@H](N)c3ccccc3)C(=O)N2[C@H]1C(=O)O [AMPICILLIN] | 100 (≈ 286 µM)
34 | Clc1cccc(Cl)c1-c1cc(-c2c[nH]c3ccccc23)nc(-c2c[nH]c3ccccc23)c1 | 87.5 (≈ 193 µM)
35 | O=C(O)c1cn(C2CC2)c2cc(N3CCNCC3)c(F)cc2c1=O [CIPROFLOXACIN] | 25 (≈ 75.4 µM)
36 | COc1ccc(-c2cc(-c3c[nH]c4ccccc34)nc(-c3c[nH]c4ccccc34)c2)cc1OC | 191 (≈ 428 µM)
37 | COc1ccc(-c2cc(-c3c[nH]c4ccccc34)nc(-c3c[nH]c4ccccc34)c2)c(OC)c1 | 52.2 (≈ 117 µM)

Further lines, results first:

Row | MIC [µg/mL] | SMILES
38 | 41.4 (≈ 98.5 µM) | Clc1ccccc1-c1cc(-c2c[nH]c3ccccc23)nc(-c2c[nH]c3ccccc23)c1
39 | 95.9 (≈ 224 µM) | CN(C)c1ccc(-c2cc(-c3c[nH]c4ccccc34)nc(-c3c[nH]c4ccccc34)c2)cc1
40 | 55.4 (≈ 144 µM) | c1ccc(-c2cc(-c3c[nH]c4ccccc34)nc(-c3c[nH]c4ccccc34)c2)cc1
41 | 71.5 (≈ 166 µM) | O=C(O)c1ccccc1-c1cc(-c2c[nH]c3ccccc23)nc(-c2c[nH]c3ccccc23)c1
42 | 46.6 (≈ 112 µM) | COc1ccc(-c2cc(-c3c[nH]c4ccccc34)nc(-c3c[nH]c4ccccc34)c2)cc1
43 | 90.5 (≈ 216 µM) | Clc1ccc(-c2cc(-c3c[nH]c4ccccc34)nc(-c3c[nH]c4ccccc34)c2)cc1

Test system: Bacillus subtilis
Assay: Antibacterial activity against Bacillus subtilis NCIM 2063 by standard agar method
Assay type: functional
Conditions: not given

Row | SMILES | MIC [µg/mL]
44 | COc1ccc(OC)c(-c2cc(-c3c[nH]c4ccccc34)nc(-c3c[nH]c4ccccc34)c2)c1 | 79.5 (≈ 178 µM)
45 | Oc1ccc(-c2cc(-c3c[nH]c4ccccc34)nc(-c3c[nH]c4ccccc34)c2)cc1O | 121 (≈ 291 µM)
46 | COc1cc(-c2cc(-c3c[nH]c4ccccc34)nc(-c3c[nH]c4ccccc34)c2)ccc1O | 95.7 (≈ 222 µM)
47 | COc1cc(-c2cc(-c3c[nH]c4ccccc34)nc(-c3c[nH]c4ccccc34)c2)cc(OC)c1OC | 79.9 (≈ 168 µM)
48 | CC1(C)S[C@@H]2[C@H](NC(=O)[C@H](N)c3ccccc3)C(=O)N2[C@H]1C(=O)O [AMPICILLIN] | 250 (≈ 715 µM)
49 | Clc1cccc(Cl)c1-c1cc(-c2c[nH]c3ccccc23)nc(-c2c[nH]c3ccccc23)c1 | 96.5 (≈ 212 µM)
50 | COc1ccc(-c2cc(-c3c[nH]c4ccccc34)nc(-c3c[nH]c4ccccc34)c2)cc1OC | 55.4 (≈ 124 µM)
51 | COc1ccc(-c2cc(-c3c[nH]c4ccccc34)nc(-c3c[nH]c4ccccc34)c2)c(OC)c1 | 88.7 (≈ 199 µM)

Next, values leading:

Row | MIC [µg/mL] | SMILES
52 | 64.8 (≈ 154 µM) | Clc1ccccc1-c1cc(-c2c[nH]c3ccccc23)nc(-c2c[nH]c3ccccc23)c1
53 | 103 (≈ 240 µM) | CN(C)c1ccc(-c2cc(-c3c[nH]c4ccccc34)nc(-c3c[nH]c4ccccc34)c2)cc1
54 | 89.6 (≈ 232 µM) | c1ccc(-c2cc(-c3c[nH]c4ccccc34)nc(-c3c[nH]c4ccccc34)c2)cc1
55 | 70.4 (≈ 164 µM) | O=C(O)c1ccccc1-c1cc(-c2c[nH]c3ccccc23)nc(-c2c[nH]c3ccccc23)c1
56 | 81.5 (≈ 196 µM) | COc1ccc(-c2cc(-c3c[nH]c4ccccc34)nc(-c3c[nH]c4ccccc34)c2)cc1
57 | 77.2 (≈ 184 µM) | Clc1ccc(-c2cc(-c3c[nH]c4ccccc34)nc(-c3c[nH]c4ccccc34)c2)cc1

Test system: Staphylococcus aureus
Assay: Antibacterial activity against Staphylococcus aureus NCIM 2901 by standard agar method
Assay type: functional
Conditions: not given

Row | SMILES | MIC [µg/mL]
58 | COc1ccc(OC)c(-c2cc(-c3c[nH]c4ccccc34)nc(-c3c[nH]c4ccccc34)c2)c1 | 158 (≈ 356 µM)
59 | Oc1ccc(-c2cc(-c3c[nH]c4ccccc34)nc(-c3c[nH]c4ccccc34)c2)cc1O | 191 (≈ 458 µM)
60 | COc1cc(-c2cc(-c3c[nH]c4ccccc34)nc(-c3c[nH]c4ccccc34)c2)ccc1O | 221 (≈ 511 µM)
61 | COc1cc(-c2cc(-c3c[nH]c4ccccc34)nc(-c3c[nH]c4ccccc34)c2)cc(OC)c1OC | 179 (≈ 377 µM)
62 | CC1(C)S[C@@H]2[C@H](NC(=O)[C@H](N)c3ccccc3)C(=O)N2[C@H]1C(=O)O [AMPICILLIN] | 250 (≈ 715 µM)
63 | Clc1cccc(Cl)c1-c1cc(-c2c[nH]c3ccccc23)nc(-c2c[nH]c3ccccc23)c1 | 178 (≈ 391 µM)
64 | COc1ccc(-c2cc(-c3c[nH]c4ccccc34)nc(-c3c[nH]c4ccccc34)c2)cc1OC | 194 (≈ 436 µM)
65 | COc1ccc(-c2cc(-c3c[nH]c4ccccc34)nc(-c3c[nH]c4ccccc34)c2)c(OC)c1 | 123 (≈ 276 µM)

Results, then the compound that gave them:

Row | MIC [µg/mL] | SMILES
66 | 166 (≈ 394 µM) | Clc1ccccc1-c1cc(-c2c[nH]c3ccccc23)nc(-c2c[nH]c3ccccc23)c1
67 | 229 (≈ 534 µM) | CN(C)c1ccc(-c2cc(-c3c[nH]c4ccccc34)nc(-c3c[nH]c4ccccc34)c2)cc1
68 | 158 (≈ 410 µM) | c1ccc(-c2cc(-c3c[nH]c4ccccc34)nc(-c3c[nH]c4ccccc34)c2)cc1
69 | 129 (≈ 300 µM) | O=C(O)c1ccccc1-c1cc(-c2c[nH]c3ccccc23)nc(-c2c[nH]c3ccccc23)c1
70 | 165 (≈ 398 µM) | COc1ccc(-c2cc(-c3c[nH]c4ccccc34)nc(-c3c[nH]c4ccccc34)c2)cc1
71 | 183 (≈ 435 µM) | Clc1ccc(-c2cc(-c3c[nH]c4ccccc34)nc(-c3c[nH]c4ccccc34)c2)cc1

Test system: HeLa
Assay: Cytotoxic activity against human HeLa cells up to 300 ug/mL after 72 hrs by MTT assay
Assay type: cell-based
Conditions: not given

Row | SMILES | Activity
72 | COc1ccc(-c2cc(-c3c[nH]c4ccccc34)nc(-c3c[nH]c4ccccc34)c2)cc1 | Non-Toxic
73 | Clc1ccccc1-c1cc(-c2c[nH]c3ccccc23)nc(-c2c[nH]c3ccccc23)c1 | Non-Toxic

Test system: Leishmania donovani
Assay: Antileishmanial activity against Leishmania donovani
Assay type: functional
Conditions: not given

Row | SMILES | IC50 [µM]
74 | C[n+]1c2ccccc2cc2[n-]c3ccccc3c21 [CRYPTOLEPINE] | 1.6

Test system: Leishmania chagasi
Assay: Antileishmanial activity against Leishmania donovani chagasi MHOM/BR/74/PP75 promastigotes after 72 hrs by phase contrast microscopic method
Assay type: functional
Conditions: MHOM/BR/74/PP75, 72 h

Row | SMILES | IC50 [µM]
75 | COC(=O)[C@@H]1C[C@@]23CCCN4CC[C@@]5(c6ccccc6N(C(=O)OC)[C@]15CC2)[C@H]43 | 60.9
